SMILES strings stand for the structures. Where two headings read alike, the source gives them in different places.

Assay [1] has as its target T1, STAT6 (Homo sapiens, UniProt P42226).
T1 construct: stably transfected HaCaT keratinocyte cell line, which expresses NanoLuc luciferase reporter gene under the transcriptional control of the STAT6 responsive promoter; endogenous in cells; host or cells: HaCaT keratinocyte reporter cell line (stably transfected with a NanoLuc reporter)
T1 sequence (P42226 1-847): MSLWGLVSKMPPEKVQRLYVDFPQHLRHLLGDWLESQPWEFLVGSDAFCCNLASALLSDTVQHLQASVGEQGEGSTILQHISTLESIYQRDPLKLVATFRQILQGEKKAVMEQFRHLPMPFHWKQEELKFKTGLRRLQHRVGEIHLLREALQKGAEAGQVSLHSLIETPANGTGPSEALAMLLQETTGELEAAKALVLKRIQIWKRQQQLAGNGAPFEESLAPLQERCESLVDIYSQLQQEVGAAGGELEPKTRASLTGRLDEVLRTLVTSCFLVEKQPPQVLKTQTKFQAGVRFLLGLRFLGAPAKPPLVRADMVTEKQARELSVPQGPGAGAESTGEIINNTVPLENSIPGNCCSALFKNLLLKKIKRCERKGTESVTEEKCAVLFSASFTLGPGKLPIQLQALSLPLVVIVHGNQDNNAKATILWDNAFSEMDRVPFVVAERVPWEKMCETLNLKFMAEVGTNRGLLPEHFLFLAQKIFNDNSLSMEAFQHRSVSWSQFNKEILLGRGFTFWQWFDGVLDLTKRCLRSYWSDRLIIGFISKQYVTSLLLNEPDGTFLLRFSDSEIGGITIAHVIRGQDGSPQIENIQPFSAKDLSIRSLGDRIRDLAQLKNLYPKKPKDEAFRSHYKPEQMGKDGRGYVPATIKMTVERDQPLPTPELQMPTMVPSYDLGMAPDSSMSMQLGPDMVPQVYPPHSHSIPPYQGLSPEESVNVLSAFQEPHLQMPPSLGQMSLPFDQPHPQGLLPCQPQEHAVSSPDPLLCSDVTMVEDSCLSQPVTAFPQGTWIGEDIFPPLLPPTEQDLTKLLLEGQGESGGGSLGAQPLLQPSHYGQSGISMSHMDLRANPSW
As to the kind of experiment: STAT6 Reporter Luciferase Assay (IL-13 stimulated HaCaT keratinocyte NanoLuc reporter cells). The assay is classed as cell-based. The following applies: read-out: Reporter EC50. The procedure, abridged: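 Luminescence from a NanoLuc reporter driven by the STAT6-responsive IL-13Ra2 promoter in HaCaT keratinocytes serves as the read-out. Compounds are given 2 h before a 4 h stimulation with 0.12 nM IL-13.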

For assay [2], the system named is CCL17 secretion in peripheral human whole blood. As to the kind of experiment: Human Whole Blood (HWB) CCL17 TR-FRET Assay (IL-13 stimulated CCL17 secretion). The assay is classed as cell-based. The procedure, abridged: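 Measured here: CCL17 in serum by TR-FRET (665/615 nm) after overnight (16 h) room-temperature detection. The blood, heparinized and compound-treated for 2 h, received IL-13 at 10 ng/mL final and was cultured 48 h at 37 °C.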
For orientation: In TR-FRET formats the signal depends on donor and acceptor labels being close together.

Setting [3] is: IL-13 stimulated HaCaT STAT6 NanoLuc reporter cells.
Where [4] appears, read: Homo sapiens, 48 h, human whole blood, IL-13 stimulated.
Where [5] appears, read: Homo sapiens, 48 h, human whole blood, 10 ng/mL IL13, 48 hours.
Where [6] appears, read: STAT6 NanoLuc luciferase reporter, IL-13 stimulated HaCaT keratinocyte cells.
Where [7] appears, read: Homo sapiens, 48 h, inhibition of CCL17 secretion in human whole blood, 10 ng/mL IL13, 48 hours.
Setting [8] is: inhibition of CCL17 secretion in human whole blood, 10 ng/mL IL13, 48 hours.

One may read the EC50 as the concentration giving half of the maximal effect. The IC50 is the concentration needed to halve the response being measured. A low value points to inhibition by little substance. Consider `CNC(=O)Cc1ccc(N2CCc3c(c(C(=O)NCc4ccc(NC(=O)N(C)C)cc4)nn3C(C)C)C2)nc1` [Example 337, N-(4-(3,3-dimethylureido)benzyl)-1-isopropyl-5-(5-(2-(methylamino)-2-oxoethyl)pyridin-2-yl)-4,5,6,7-tetrahydro-1H-pyrazolo[4,3-c]pyridine-3-carboxamide], for which the EC50 in assay [1] (setting [3]) stood at 5370 nM. Also, the IC50 in assay [2] (setting [4]) was over 20500 nM.
On to `CC(C)n1nc(C(=O)NCc2ccc(NC(=O)N3CCCN(C)CC3)c(F)c2)c2c1[C@@H](C)CN(c1ccc(C(=O)N(C)C)cn1)C2` [Example 607, (S)-5-(5-(dimethylcarbamoyl)pyridin-2-yl)-N-(3-fluoro-4-(4-methyl-1,4-diazepane-1-carboxamido)benzyl)-1-isopropyl-7-methyl-4,5,6,7-tetrahydro-1H-pyrazolo[4,3-c]pyridine-3-carboxamide], for which the EC50 in assay [1] (setting [3]) amounted to 2 nM. Further, the IC50 in assay [2] (setting [5]) amounted to 21 nM.
In the case of `C[C@H]1CN(c2ncc(C(=O)N(C)C)cn2)Cc2c(C(=O)NCc3ccc(NC(=O)N(C)C)cc3)nn(CC3CC3)c21` [Example 120, (S)-1-(cyclopropylmethyl)-5-(5-(dimethylcarbamoyl)pyrimidin-2-yl)-N-(4-(3,3-dimethylureido)benzyl)-7-methyl-4,5,6,7-tetrahydro-1H-pyrazolo[4,3-c]pyridine-3-carboxamide], the EC50 in assay [1] (setting [6]) was found to be 1 nM. Further, 4 nM corresponded to half-maximal inhibition in assay [2] (setting [7]) (IC50).
Consider `CC(C)n1nc(C(=O)NCc2ccc(NC(=O)N(C)C)cc2)c2c1[C@H](C)CN(c1ncc(C(=O)N(C)C)cn1)C2` (single isomer, unassigned) [Example 552], for which the EC50 in assay [1] (setting [3]) is 34 nM. This compound also registered an IC50 in assay [2] (setting [5]) of 87 nM.
On to `CC(C)n1nc(C(=O)NCc2ccc(NC(=O)N3CCC(C)(C#N)CC3)cc2)c2c1[C@@H](C)CN(c1ccc(C(=O)N(C)C)cn1)C2` [Example 593, (S)-N-(4-(4-cyano-4-methylpiperidine-1-carboxamido)benzyl)-5-(5-(dimethylcarbamoyl)pyridin-2-yl)-1-isopropyl-7-methyl-4,5,6,7-tetrahydro-1H-pyrazolo[4,3-c]pyridine-3-carboxamide], for which the EC50 in assay [1] (setting [3]) is 1 nM. Moreover, the half-maximal inhibitory concentration (IC50) in assay [2] (setting [5]) is 12 nM.
On to `CN(C)C(=O)Nc1ccc(CNC(=O)c2nn(C)c3c2[C@H]2CCC[C@@H](C3)N2c2ccc(C(=O)N(C)C)cn2)cc1` (racemic) [Example 68, rac-(4R,8S)-10-(5-(dimethylcarbamoyl)pyridin-2-yl)-N-(4-(3,3-dimethylureido)benzyl)-1-methyl-4,5,6,7,8,9-hexahydro-1H-4,8-epiminocycloocta[c]pyrazole-3-carboxamide], for which the EC50 in assay [1] (setting [6]) was 9 nM. The same compound registered an IC50 in assay [2] (setting [8]) of 43 nM.
Turning to `CC(C)n1nc(C(=O)NCc2ccc(NC(=O)N3CCC(C)(C#N)CC3)cc2)c2c1CCN(c1ccc(C(=O)N(C)C)cn1)C2` [Example 172, N-(4-(4-cyano-4-methylpiperidine-1-carboxamido)benzyl)-5-(5-(dimethylcarbamoyl)pyridin-2-yl)-1-isopropyl-4,5,6,7-tetrahydro-1H-pyrazolo[4,3-c]pyridine-3-carboxamide], in assay [1] (setting [6]), the EC50 amounted to 11 nM. In assay [2] (setting [7]), the IC50 was determined as 150 nM.
Take `CC(C)n1nc(C(=O)NCc2ccc(NC(=O)N3CC(C)(N)C3)cc2)c2c1CCN(c1ccc(C(=O)N(C)C)cn1)C2` [Example 163, N-(4-(3-amino-3-methylazetidine-1-carboxamido)benzyl)-5-(5-(dimethylcarbamoyl)pyridin-2-yl)-1-isopropyl-4,5,6,7-tetrahydro-1H-pyrazolo[4,3-c]pyridine-3-carboxamide]: in assay [1] (setting [6]), the half-maximal effective concentration (EC50) amounted to 16 nM. The IC50 in assay [2] (setting [7]) was determined as 30 nM.
Regarding `CC(C)n1nc(C(=O)NCc2ccc(NC(=O)N(C)C)cc2)c2c1CCN(c1ccc(NS(C)(=O)=O)cn1)C2` [Example 138, N-(4-(3,3-dimethylureido)benzyl)-1-isopropyl-5-(5-(methylsulfonamido)pyridin-2-yl)-4,5,6,7-tetrahydro-1H-pyrazolo[4,3-c]pyridine-3-carboxamide], the EC50 in assay [1] (setting [6]) turned out to be 248 nM. The compound also displayed an IC50 in assay [2] (setting [7]) of 1140 nM.
Consider `CC(C)n1nc(C(=O)NCc2ccc(-c3ncc[nH]3)cc2)c2c1C(C(F)(F)F)CN(c1ccc(C(=O)N(C)C)cn1)C2` (single isomer, unassigned) [Example 124, rel-(R or S)-N-(4-(1H-imidazol-2-yl)benzyl)-5-(5-(dimethylcarbamoyl)pyridin-2-yl)-1-isopropyl-7-(trifluoromethyl)-4,5,6,7-tetrahydro-1H-pyrazolo[4,3-c]pyridine-3-carboxamide], for which the EC50 in assay [1] (setting [6]) is 0.3 nM. Besides, in assay [2] (setting [8]), 5 nM corresponded to half-maximal inhibition (IC50).
For `CCn1nc(C(=O)NCc2ccc(NC(=O)N(C)C)cc2)c2c1CCN(c1ccc(C(=O)N(C)C)cn1)[C@@H]2C` [Example 513, (R)-5-(5-(dimethylcarbamoyl)pyridin-2-yl)-N-(4-(3,3-dimethylureido)benzyl)-1-ethyl-4-methyl-4,5,6,7-tetrahydro-1H-pyrazolo[4,3-c]pyridine-3-carboxamide], in assay [1] (setting [3]), the EC50 came out at 3 nM. This compound registered an IC50 in assay [2] (setting [4]) of 18 nM.
For `CN(C)C(=O)Nc1ccc(CNC(=O)c2nn(C)c3c2CN(c2ccc(C(=O)N(C)C)cn2)CC3C(F)(F)F)cc1` (single isomer, unassigned) [Example 391, rel-(R or S)-5-(5-(dimethylcarbamoyl)pyridin-2-yl)-N-(4-(3,3-dimethylureido)benzyl)-1-methyl-7-(trifluoromethyl)-4,5,6,7-tetrahydro-1H-pyrazolo[4,3-c]pyridine-3-carboxamide], in that order: 740 nM and 2170 nM.
Regarding `CCn1nc(C(=O)NCc2ccc(C(=O)NC)cc2)c2c1[C@@H](C)CN(c1ccc(C(=O)N(C)C)cn1)C2` [Example 284, (S)-5-(5-(dimethylcarbamoyl)pyridin-2-yl)-1-ethyl-7-methyl-N-(4-(methylcarbamoyl)benzyl)-4,5,6,7-tetrahydro-1H-pyrazolo[4,3-c]pyridine-3-carboxamide], the concentration giving a half-maximal response (EC50) in assay [1] (setting [3]) amounted to 8 nM. Also, the midpoint of inhibition in assay [2] (setting [4]), the IC50, lay at 40 nM.
As to `COCC(C)n1nc(C(=O)NCc2ccc(NC(=O)N(C)C)cc2)c2c1CCN(c1ccc(C(=O)N(C)C)cn1)C2` (racemic) [Example 92, rac-(R)-5-(5-(dimethylcarbamoyl)pyridin-2-yl)-N-(4-(3,3-dimethylureido)benzyl)-1-(1-methoxypropan-2-yl)-4,5,6,7-tetrahydro-1H-pyrazolo[4,3-c]pyridine-3-carboxamide], the EC50 in assay [1] (setting [6]) is 20 nM. Besides, in assay [2] (setting [7]), it took 62 nM to reach half-maximal inhibition (IC50).
Turning to `CC(C)n1nc(C(=O)NCc2ccc(NC(=O)N(C)C)cc2)c2c1[C@@H](C)CN(c1ncc(N3CCCC3=O)cn1)C2` [Example 486, (S)-N-(4-(3,3-dimethylureido)benzyl)-1-isopropyl-7-methyl-5-(5-(2-oxopyrrolidin-1-yl)pyrimidin-2-yl)-4,5,6,7-tetrahydro-1H-pyrazolo[4,3-c]pyridine-3-carboxamide], the EC50 in assay [1] (setting [3]) turned out to be 2 nM. This compound had an IC50 in assay [2] (setting [4]) of 11 nM.
On to `CNC(=O)c1ccc(CNC(=O)c2nn(C(C)C)c3c2CN(c2ncc(C(=O)N(C)C)cn2)[C@@H](C)C3)cc1` [Example 534, (S)-5-(5-(dimethylcarbamoyl)pyrimidin-2-yl)-1-isopropyl-6-methyl-N-(4-(methylcarbamoyl)benzyl)-4,5,6,7-tetrahydro-1H-pyrazolo[4,3-c]pyridine-3-carboxamide], for which the EC50 in assay [1] (setting [3]) stood at 33 nM. In assay [2] (setting [5]), this compound showed an IC50 of 155 nM.
As to `CC(C)n1nc(C(=O)NCc2ccc(NC(=O)N(C)C)cn2)c2c1[C@@H](C)CN(c1ccc(C(=O)N(C)C)cn1)C2` [Example 350, (S)-5-(5-(dimethylcarbamoyl)pyridin-2-yl)-N-((5-(3,3-dimethylureido)pyridin-2-yl)methyl)-1-isopropyl-7-methyl-4,5,6,7-tetrahydro-1H-pyrazolo[4,3-c]pyridine-3-carboxamide], the EC50 in assay [1] (setting [3]) worked out at 2 nM. The IC50 in assay [2] (setting [4]) is 6 nM.

The record behind these values is patent publication US20250320213A1, “Nitrogen-Containing Heterocyclic Compounds” (Pfizer Inc., priority 2024, published 2025).
